Assay results reported in patent US8063225B2, “Tricyclic compound derivatives useful in the treatment of neoplastic diseases, inflammatory disorders and immunomodulatory disorders” (Chembridge Corporation, priority 2006, dated 2011).
pIC50: −log10 of the molar value.

What was measured:
IGF1R tyrosine kinase = molecular target: T1, IGF1R tyrosine kinase (Homo sapiens, UniProt P08069); experiment: IGF1R tyrosine kinase assay (Kinase-Glo ATP depletion or PT66/PT100 AlphaScreen); conditions: biochemical tyrosine kinase assay
T1 construct: 6×His- or GST-tagged kinase domain fragments of the corresponding RTKs expressed in baculovirus system; host or cells: baculovirus system
Outline: (§1)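 Phosphorylation of poly(Glu-Tyr) by baculovirus-made kinase domains, 10 μM ATP, measured either as ATP depletion (Kinase-Glo, 37° C, 1 h) or phosphotyrosine AlphaScreen (room temperature, 30 min plus 60 min with beads).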

InsR = molecular target: T2, InsR (Homo sapiens, UniProt P06213); experiment: Tyrosine kinase assay (Kinase-Glo or AlphaScreen), InsR; conditions: biochemical tyrosine kinase assay
T2 construct: 6×His- or GST-tagged kinase domain fragments of the corresponding RTKs expressed in baculovirus system; host or cells: baculovirus system
Outline: as §1

Alk = molecular target: T3, Alk (Homo sapiens, UniProt Q9UM73); experiment: Tyrosine kinase assay (Kinase-Glo or AlphaScreen), Alk; conditions: biochemical tyrosine kinase assay
T3 construct: 6×His- or GST-tagged kinase domain fragments of the corresponding RTKs expressed in baculovirus system; host or cells: baculovirus system
Outline: as §1

Jak2 = molecular target: T4, Jak2 (Homo sapiens, UniProt O60674); experiment: Tyrosine kinase assay (Kinase-Glo or AlphaScreen), Jak2; conditions: biochemical tyrosine kinase assay
T4 construct: 6×His- or GST-tagged kinase domain fragments of the corresponding RTKs expressed in baculovirus system; host or cells: baculovirus system
Outline: as §1

IGF1 receptor = molecular target: T5, IGF1 receptor (Homo sapiens, UniProt P08069); experiment: ELISA-based assay of IGF1 receptor autophosphorylation inhibition in cells; assay type: cell-based; conditions: IGF1R phosphorylation inhibition in MCF7 cells
T5 construct: MCF7 human breast cancer cells expressing IGF1 receptor; endogenous in cells; host or cells: MCF7 human breast cancer cells
Experimental: In another embodiment, compounds that interact with the IGF1R kinase domain are tested in a cell-based assay system. In accordance with this embodiment, cells expressing a full-length IGF1 receptor or a fragment thereof containing the IGF1R kinase domain, are contacted with a candidate or a control compound and the ability of the compound to block tyrosine kinase activity of IGF1R within a cell is determined. This assay may be used to screen a single compound or a large library of candidate compounds. Typically, the cells or cell lines are of mammalian origin and they can express the IGF1 receptor, or functional IGF1R kinase domain fragment, endogenously or be genetically engineered to express the IGF1R, or functional fragment thereof. The ability of the candidate compound to inhibit IGF1R kinase activity can be determined by methods known to those skilled in the art. For example, the inhibition can be determined by ELISA-type assay or Western blot analysis with cell lysates or immunoprecipitated IGF1R receptor using various anti-IGF1R and anti-phosphotyrosine antibodies.
In general, cells expressing IGF1R are treated with modulators (i.e., inhibitors or activators) of IGF1R kinase activity and cell lysates are produced from these treated cells. IGF1Rs are isolated from the lysate by immunoprecipitation and analyzed for phosphotyrosine content. Alternatively, or in addition, cellular protein substrates phosphorylated by IGFR may be immunoprecipitated from the lysates and their degree of tyrosine phosphorylation determined.
MCF7 human breast cancer cells expressing IGF1 receptor or an engineered […] fibroblast cell line NIH 3T3 overexpressing full-length IGF1R are an exemplary cellular models in which to perform such assays. Such cells may be maintained in DMEM medium supplemented with 10% fetal bovine serum (FBS), 4% L-glutamine, 1% antibiotic solution (penicillin-Streptomycin) in a humidified atmosphere of 95% air and 5% CO2 at 37° C. Confluent cells in T175 cell culture flasks are incubated overnight with serum-free DMEM medium. After the serum starvation step, the cells are detached and split into a standard 96-well cell culture plate (one T175 flask per plate, 30 μl of cell suspension per plate well). Tested inhibitors from their 10 mM stock solutions in DMSO are subsequently added at various concentrations in serum-free DMEM medium for 1 hour incubation at 37° C. in CO2-incubator; total DMSO concentration in both treated and control wells is adjusted to 1%. Cells are then stimulated for 10 minutes with 100 nM IGF-1 added in 30 μl DMEM. After treatment, cells are lysed by addition of 30 μl of 4× lysis buffer (phosphate-buffered saline (PBS), 2% Triton-X100, 1 mM phenylmethylsulphonyl fluoride (PMSF) and 8 mM activated orthovanadate), mixing and incubation for 15 minute at room temperature. To prepare assay plates, 96-well ELISA Plates (Pierce Chemical, Reacti-bind plates) were coated by goat-anti-rabbit Fc antiserum by adding 0.25 μg antiserum per well in 0.2M sodium bicarbonate buffer per well and incubating overnight at 4° C. After incubation, the plate is washed three times by PBS with 0.02% Tween-20, supplied with 25 ng/50 μl per well of anti-IGF1R antibody (C-20, Santa Cruz Biotechnology) and incubated for several hours to overnight. Prior to the addition of the prepared cellular lysates, the antibody solution is aspirated, wells washed with PBS and supplied with 25 μl per well of Starting Block buffer (Pierce Chemical).
To measure tyrosine phosphorylation of the beta-subunits of the IGF1R, 25-50 μl of the lysates are transferred from the stimulation plate to the wells of the prepared assay plate and incubated overnight at 4° C. The wells are washed with PBS with 0.02% Tween-20, incubated with 50 μl of 1:3000 dilution of anti-phosphotyrosine 4G10-HRP antibody conjugate (Upstate Biotechnology) for 2 hours at room temperature and washed again. […]

H929 (multiple myeloma) = experiment: Cell proliferation inhibition, Cell Titer-Glo, H929; assay type: cell-based; conditions: Homo sapiens, NCI-H929; cell proliferation assay, H929 cells
Experimental: IGF1R and other tyrosine kinase inhibitors can inhibit the proliferation of certain cancer cell lines indicating their possible therapeutic utility for treating the corresponding cancer types. Cancer cell lines of interest and control normal lines, including CHO, HEK293, BA/F3, MM1, H929, COLO205, PC3, DU145, MCF7, Panc1, ACHN, Hep G2, H460, K562, TT, U87-G, CAOV-3, SK-MEL5, Karpas 299, are plated in white, clear-bottomed 384-well cell culture plates at 2500-5000 cells per well and supplied with dilutions of tested compounds After a desired period of time (typically 3 days), the number of viable cells is quantitated by using Cell Titer-Glo Luminescent Cell Viability Assay (Promega), a cell proliferation assay system based on detection of total amount of ATP present as a measure of cell metabolic activity. The plated cells are mixed with the Cell Titer-Glo developing reagent and counted in a luminescence multiwell plate reader according to the standard manufacturer's protocol to generate IC50 curves for cell proliferation inhibition.
IGF1R and other tyrosine kinase inhibitors can inhibit the proliferation of certain cancer cell lines indicating their possible therapeutic utility for treating the corresponding cancer types. Cancer cell lines of interest and control normal lines, including CHO, HEK293, BA/F3, COLO205, PC3, DU145, MCF7, Panc1, ACHN, Hep G2, H460, K562, TT, U87-MG, CAOV-3, SK-MEL5, Karpas 299 and human multiple myeloma cell lines H929, MM1s, MM1r, UTMC2, CPM2, KMS11, My5, KMS12PE, My7, JJN3, KMS18, U266, SKMM2, RPMI-8226 are plated in white, clear-bottomed 384-well cell culture plates at 2500-5000 cells per well and supplied with dilutions of tested compounds After a desired period of time (typically 3 days), the number of viable cells is quantitated by using Cell Titer-Glo Luminescent Cell Viability Assay (Promega), a cell proliferation assay system based on detection of total amount of ATP present as a measure of cell metabolic activity. The plated cells are mixed with the Cell Titer-Glo developing reagent and counted in a luminescence multiwell plate reader according to the standard manufacturer's protocol to generate IC50 curves for cell proliferation inhibition. Results are typically reported as percent of growth (% viability =(OD72h(compound)−ODday0))/(OD72h(no compound)−ODday0). Alternatively, viable cells are quantitated by using the conventional colorimetric MTT assay. The MTT assay is based on the cleavage of the yellow tetrazolium salt MTT to purple formazan crystal by metabolic active cells. The formazan is then solubilized, and the concentration determined by optical density at 570 nm. The cells plated and incubated with a compound as described above are supplemented with the solution of MTT and incubated for 2-3 hours. The growth medium is removed and dimethyl sulfoxide is added into each well to dissolve the formazan. The absorbance is measured on an ELISA plate reader with a test wavelength of 570 nm and a background subtraction wavelength of 630 nm to obtain sample signal (OD570-OD630). […] The results are reported in terms of IC50 value for a particular compound and a cell line in the standard 3-day proliferation assay using Cell Titer-Glo. […] The results are reported in terms of IC50 value for a particular compound and a cell line in the standard 3-day proliferation assay using MTT assay.

Ba/F3 = experiment: Cell proliferation inhibition, Cell Titer-Glo, Ba/F3; assay type: cell-based; conditions: Mus musculus, BaF3; cell proliferation assay, Ba/F3 cells
Outline: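 This standard 3-day proliferation assay used Ba/F3 cells plated in 384-well white plates with clear bottoms at 2500-5000 cells per well and treated with compound dilutions. Viable cell number was determined by mixing in Cell Titer-Glo developing reagent according to the manufacturer's protocol and counting luminescence. Percent viability relative to day 0 and untreated wells produced IC50 curves.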

Karpas-299 = experiment: Cell proliferation inhibition, Cell Titer-Glo, Karpas-299; assay type: cell-based; conditions: Homo sapiens; cell proliferation assay, Karpas-299 cells
Outline: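 In this standard 3-day proliferation assay, Karpas 299 cells plated at 2500-5000 cells per well in 384-well white, clear-bottomed plates were treated with compound dilutions. Cell Titer-Glo developing reagent was added following the manufacturer's protocol, luminescence reflecting ATP content was read on a multiwell plate reader, and IC50 curves were generated.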

K562 = experiment: Cell proliferation inhibition, Cell Titer-Glo, K562; assay type: cell-based; conditions: Homo sapiens; cell proliferation assay, K562 cells
Outline: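 Proliferation inhibition in human K562 cells was assessed in a standard 3-day assay. Cells (2500-5000 per well) in 384-well white, clear-bottomed plates received serial compound dilutions, then Cell Titer-Glo reagent was added per the manufacturer's protocol. Luminescence reflecting ATP content of metabolically active cells was counted in a multiwell reader, and IC50 curves were generated.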

T3 sequence (Q9UM73 1116-1392 limits assumed, species assumed): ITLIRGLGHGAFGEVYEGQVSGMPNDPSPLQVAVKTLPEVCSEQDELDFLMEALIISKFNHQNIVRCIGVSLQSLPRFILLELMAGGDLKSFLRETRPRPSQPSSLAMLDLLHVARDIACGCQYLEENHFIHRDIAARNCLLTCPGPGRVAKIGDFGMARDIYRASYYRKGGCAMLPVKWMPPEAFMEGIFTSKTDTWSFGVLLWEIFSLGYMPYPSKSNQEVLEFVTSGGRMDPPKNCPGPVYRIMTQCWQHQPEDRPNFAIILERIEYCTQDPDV
T4 sequence (O60674 849-1124 limits assumed, species assumed): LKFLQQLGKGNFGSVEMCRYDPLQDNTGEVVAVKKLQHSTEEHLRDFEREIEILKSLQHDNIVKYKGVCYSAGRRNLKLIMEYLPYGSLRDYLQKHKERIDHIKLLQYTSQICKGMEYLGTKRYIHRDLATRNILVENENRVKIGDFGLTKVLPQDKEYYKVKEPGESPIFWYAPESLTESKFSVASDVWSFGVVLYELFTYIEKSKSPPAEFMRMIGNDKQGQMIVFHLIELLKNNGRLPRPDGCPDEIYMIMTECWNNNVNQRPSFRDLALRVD
T1 sequence (P08069 999-1274 limits assumed): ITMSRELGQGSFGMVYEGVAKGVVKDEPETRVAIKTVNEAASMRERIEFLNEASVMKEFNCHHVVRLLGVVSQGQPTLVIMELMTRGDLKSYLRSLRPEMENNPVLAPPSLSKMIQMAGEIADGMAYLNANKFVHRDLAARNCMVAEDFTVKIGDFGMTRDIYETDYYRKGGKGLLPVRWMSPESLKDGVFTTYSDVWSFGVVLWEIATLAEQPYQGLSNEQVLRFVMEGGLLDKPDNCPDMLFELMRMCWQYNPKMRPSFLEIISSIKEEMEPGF
T2 sequence (P06213 1023-1298 limits assumed, species assumed): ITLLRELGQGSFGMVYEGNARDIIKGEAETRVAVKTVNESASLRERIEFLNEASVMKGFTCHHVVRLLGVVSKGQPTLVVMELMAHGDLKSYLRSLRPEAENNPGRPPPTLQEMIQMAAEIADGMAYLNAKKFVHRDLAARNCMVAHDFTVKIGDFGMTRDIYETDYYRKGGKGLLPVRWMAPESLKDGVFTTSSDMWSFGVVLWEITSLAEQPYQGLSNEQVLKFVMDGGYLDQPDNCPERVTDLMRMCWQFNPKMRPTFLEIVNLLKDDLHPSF
T5 sequence (P08069 741-1367 limits assumed): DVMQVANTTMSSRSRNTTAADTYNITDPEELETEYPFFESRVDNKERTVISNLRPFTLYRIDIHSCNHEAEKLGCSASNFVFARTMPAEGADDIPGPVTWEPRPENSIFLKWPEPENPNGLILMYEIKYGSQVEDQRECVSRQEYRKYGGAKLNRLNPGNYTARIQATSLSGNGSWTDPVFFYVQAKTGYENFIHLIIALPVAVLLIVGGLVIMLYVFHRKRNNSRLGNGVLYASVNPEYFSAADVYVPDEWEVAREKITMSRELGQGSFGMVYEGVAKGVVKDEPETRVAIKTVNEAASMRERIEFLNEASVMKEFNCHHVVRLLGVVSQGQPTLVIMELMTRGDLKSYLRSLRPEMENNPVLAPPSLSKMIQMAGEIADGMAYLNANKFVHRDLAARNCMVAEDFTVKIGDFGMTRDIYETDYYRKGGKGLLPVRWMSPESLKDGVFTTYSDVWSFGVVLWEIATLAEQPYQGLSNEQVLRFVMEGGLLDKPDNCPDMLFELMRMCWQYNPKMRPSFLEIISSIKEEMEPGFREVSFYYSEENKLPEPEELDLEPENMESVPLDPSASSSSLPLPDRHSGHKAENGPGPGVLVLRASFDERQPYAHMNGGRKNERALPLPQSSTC
T5 sequence (P08069 31-736 partner limits assumed): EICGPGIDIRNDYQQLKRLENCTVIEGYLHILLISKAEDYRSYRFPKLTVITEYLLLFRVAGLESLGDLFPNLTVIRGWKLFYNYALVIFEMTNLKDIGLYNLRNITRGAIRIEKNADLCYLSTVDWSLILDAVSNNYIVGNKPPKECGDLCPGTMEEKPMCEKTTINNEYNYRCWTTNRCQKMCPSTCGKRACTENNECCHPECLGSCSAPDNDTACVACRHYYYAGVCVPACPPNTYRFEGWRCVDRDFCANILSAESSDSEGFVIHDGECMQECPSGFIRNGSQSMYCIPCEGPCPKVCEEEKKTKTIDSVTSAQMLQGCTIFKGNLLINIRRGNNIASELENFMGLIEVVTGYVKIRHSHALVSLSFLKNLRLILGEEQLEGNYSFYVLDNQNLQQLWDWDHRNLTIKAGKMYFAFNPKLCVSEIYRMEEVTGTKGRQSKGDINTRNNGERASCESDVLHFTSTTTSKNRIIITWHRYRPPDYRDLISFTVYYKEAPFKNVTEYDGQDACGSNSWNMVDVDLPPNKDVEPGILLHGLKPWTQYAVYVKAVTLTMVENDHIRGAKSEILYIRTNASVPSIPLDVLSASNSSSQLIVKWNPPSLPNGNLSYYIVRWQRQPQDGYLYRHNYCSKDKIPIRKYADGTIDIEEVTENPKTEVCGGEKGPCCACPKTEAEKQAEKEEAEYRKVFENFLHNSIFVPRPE

| SMILES | pIC50 (IGF1R tyrosine kinase) | pIC50 (InsR) | pIC50 (Alk) | pIC50 (Jak2) | pIC50 (IGF1 receptor) | pIC50 (H929 (multiple myeloma)) | pIC50 (Ba/F3) | pIC50 (Karpas-299) | pIC50 (K562) |
| --- | --- | --- | --- | --- | --- | --- | --- | --- | --- |
| Cc1cc(OCC(O)CNc2cc[nH]c(=O)c2-c2nc3cc4c(cc3[nH]2)C(=O)N(C2CCN(C)CC2)C4=O)ccc1Cl (stereo not drawn) [compound 10] | 4.82 to 5.30 | 5.30 to 6.30 | < 4.82 | 4.82 to 5.30 | < 4.82 |  |  |  |  |
| O=C1c2cc3nc(-c4c(NC[C@@H](O)c5cccc(Cl)c5)cc[nH]c4=O)[nH]c3cc2C(=O)N1CCN1CCCC1 [compound 17] |  |  |  |  | < 4.82 |  |  |  |  |
| Cc1ccc(OC[C@H](O)CNc2cc[nH]c(=O)c2-c2nc3cc4c(cc3[nH]2)C(=O)N(CC2CCN(CCO)CC2)C4=O)c(C)c1 [compound 118] | > 6.30 | > 6.30 | 5.30 to 6.30 | 5.30 to 6.30 |  | < 4.82 | < 4.82 | 4.82 to 5.30 | < 4.82 |
| Cc1ccc(OC[C@H](O)CNc2cc[nH]c(=O)c2-c2nc3cc4c(cc3[nH]2)C(=O)N(C2CCN(CCO)CC2)C4=O)c(C)c1 [compound 123] | > 6.30 | 5.30 to 6.30 | 5.30 to 6.30 | 5.30 to 6.30 |  | < 4.82 | < 4.82 | < 4.82 | < 4.82 |
| Cc1c(Cl)cccc1OC[C@H](O)CNc1cc[nH]c(=O)c1-c1nc2cc3c(cc2[nH]1)C(=O)N(C1CCN(CCO)CC1)C3=O [compound 124] | 5.30 to 6.30 | 5.30 to 6.30 | 5.30 to 6.30 | 5.30 to 6.30 |  | < 4.82 | < 4.82 | 4.82 to 5.30 | < 4.82 |
| O=C1c2cc3nc(-c4c(NC[C@@H](O)COc5c(F)ccc(Cl)c5F)cc[nH]c4=O)[nH]c3cc2C(=O)N1C1CCN(CCO)CC1 [compound 125] | > 6.30 | 5.30 to 6.30 | 5.30 to 6.30 | 5.30 to 6.30 |  | < 4.82 | < 4.82 | < 4.82 | < 4.82 |
| Cc1ccc(OC[C@H](O)CNc2cc[nH]c(=O)c2-c2nc3cc4c(cc3[nH]2)C(=O)N(C2CCN(CCN(C)C)CC2)C4=O)c(C)c1 [compound 126] | > 6.30 | 5.30 to 6.30 | 4.82 to 5.30 | 5.30 to 6.30 |  | 4.82 to 5.30 | 5.30 to 6.30 | 5.30 to 6.30 | 4.82 to 5.30 |
| Cc1c(Cl)cccc1OC[C@H](O)CNc1cc[nH]c(=O)c1-c1nc2cc3c(cc2[nH]1)C(=O)N(C1CCN(CCN(C)C)CC1)C3=O [compound 127] | > 6.30 | 5.30 to 6.30 | 5.30 to 6.30 | 5.30 to 6.30 |  | < 4.82 | < 4.82 | < 4.82 | < 4.82 |
| Cc1ccc(OC[C@H](O)CNc2cc[nH]c(=O)c2-c2nc3cc4c(cc3[nH]2)C(=O)N(C2CCN(CCCO)CC2)C4=O)c(C)c1 [compound 129] | > 6.30 | > 6.30 | 5.30 to 6.30 | 5.30 to 6.30 |  | 4.82 to 5.30 | 4.82 to 5.30 | 4.82 to 5.30 | 4.82 to 5.30 |
| O=C1c2cc3nc(-c4c(NC[C@@H](O)COc5c(F)ccc(Cl)c5F)cc[nH]c4=O)[nH]c3cc2C(=O)N1C1CCN(CCCO)CC1 [compound 136] | > 6.30 | 5.30 to 6.30 | 5.30 to 6.30 | 5.30 to 6.30 |  | < 4.82 | < 4.82 | < 4.82 | < 4.82 |
| Cc1ccc(OC[C@H](O)CNc2cc[nH]c(=O)c2-c2nc3c(C)c4c(cc3[nH]2)C(=O)N(C2CCN(C)CC2)C4=O)c(C)c1Cl [compound 137] | 5.30 to 6.30 | > 6.30 | 4.82 to 5.30 | 5.30 to 6.30 |  | < 4.82 | < 4.82 | < 4.82 | < 4.82 |
